Data set [1] concerns HCV genotype 1a (H77/neo) replicon. The data set can be described thus: HCV genotype 1a (H77/neo) replicon, quantitative real-time PCR assay. It counts as cell-based. To be noted: 3 days, absence of HSA. How it is done:
(§1) HCV genotype 1b (Con-1/lucneo) and 1a (H77/neo) replicon cells were incubated with serial dilutions of compound (1) 2′C-methyl adenosine (2′CMeA) or IFNα for 3 days in the absence or presence of 40 mg/mL human serum albumin (HSA).

In data set [2] the test system is Huh-7 lucneo cells. The data set can be described thus: Cytotoxicity, CellTiter-Glo Luminescence Cell Viability assay, Huh-7 lucneo. It counts as cell-based.
For data set [3], the system named is HCV genotype 1b (Con-1/lucneo) replicon. The format is cell-based. How it is done: as §1
Data set [4] concerns HCV genotype 2a subgenomic replicon. The data set can be described thus: HCV genotype 2a subgenomic replicon in Huh-7 cells, NS3 protease activity readout. It counts as cell-based. How it is done:
(§2) The antiviral activity of compound (1) against HCV genotype 2a was tested in cells chronically infected with the genotype 2a virus as well as in cells replicating a subgenomic 2a replicon. Huh-7 cells containing chronically replicating HCV genotype 2a (J6/JFH-Rluc) virus or subgenomic replicons were cultured with compound (1) or 2′CMeA for 3 days in the absence of human serum albumin. After cultivation, the amount of luciferase in 2a-virus containing cells and HCV NS3 protease activity in the 2a replicon-containing cells was determined using Promega's luciferase assay and a novel time-resolved fluorescence assay, respectively.

The test system of data set [5] is MT4 cells. The data set can be described thus: Cytotoxicity, CellTiter-Glo Luminescence Cell Viability assay, MT4. The format is cell-based.
The subject of data set [6] is MH4 cells. The data set can be described thus: Cytotoxicity, CellTiter-Glo Luminescence Cell Viability assay, MH4. The format is cell-based. To be noted: HCV replicon-containing cell line.
Data set [7] deals with HCV genotype 2a (J6/JFH-Rluc) virus. The data set can be described thus: Huh-7 cells chronically infected with HCV genotype 2a (J6/JFH-Rluc) virus, luciferase assay. It counts as cell-based. The note with it: 3 days, absence of HSA. On the procedure:
as §2

In data set [8] the test system is SL3 cells. The data set can be described thus: Cytotoxicity, CellTiter-Glo Luminescence Cell Viability assay, SL3. It counts as cell-based. To be noted: HCV replicon-containing cell line.
Data set [9] concerns HepG2 cells. The data set can be described thus: Cytotoxicity, CellTiter-Glo Luminescence Cell Viability assay, HepG2. It counts as cell-based.
Data set [10] in a line: Intrinsic solubility and pH solubility profile. It counts as physicochemical. The note with it: pH 7.3.
Data set [11] has as its system HCV replicon cells. The data set can be described thus: In vitro combination study with IFN-α in replicon cells (MacSynergy). It counts as cell-based. To be noted: MacSynergy analysis. How it is done:
Pegylated interteron-α (PEG-IFN-α), in combination with ribavirin, represents the current standard of care for HCV-infected patients. In vitro combination studies of compound (1) and IFN-α were performed in replicon cells. Data was analyzed using the MacSynergy template developed by Prichard and Shipman.

Data set [12] has as its system HCV genotype 1. The data set can be described thus: Phase-1 first-in-human trial, antiviral activity (HCV RNA decline). To be noted: following single-dose exposure. It counts as in vivo.
Description: (§3) A randomized, double-blind, placebo controlled trial was designed to evaluate the safety/tolerability, phamacokinetics and antiviral activity of single (in Part A) and multiple (in Part B) doses of Compound (1) (oleic acid solution, above) in subjects chronically infected with HCV genotype 1 (GT-1) without decompensated cirrhosis.
(§4) In ongoing Part B, four successive cohorts of 12 subjects are randomized (10:2) to receive multiple ascending doses of Compound 1 (40 mg BID, 120 mg BID, 240 mg QD, 240 mg BID) or placebo, over 8 days.
Data set [13] concerns HCV replicon. The data set can be described thus: Anti-HCV replicon activity compared with prior art compound of formula (4). The format is cell-based. The source says: The anti-HCV replicon activity of compound (1) was compared to that of a prior art (WO 05/063744) compound, the compound of formula (4)
A short description of data set [14]: Phase-1 first-in-human trial, pharmacokinetics. The format is in vivo.
Description: as §3, §4
Data set [15] is described as follows: Phase-1 first-in-human trial, safety/tolerability. The format is in vivo.
Description: as §3, §4
The mark [16] stands for this setting: non-replicon-containing cell line.

Like-named read-outs stand apart in the source and are kept apart here.

The record followed here is patent US8569487B2, “Pyridazine compound and use thereof” (priority 2006, dated 2013).

As to `C[C@@]1(O)[C@H](O)[C@@H](CO)O[C@H]1n1cnc2c(N)ncnc21` [2′CMeA, 2′C-methyl adenosine, reference compound], the EC50 was found to be 0.17 µM in [1]; 0.175 ± 0.07 µM in data set [3] (3 days, absence of HSA, read-out: EC50 HCV 1b-lucneo (subgenomic replicon)); 0.25 µM in data set [3] (read-out: EC50 HCV 1b-lucneo 40 mg/mL HSA, 3 days, presence of 40 mg/mL human serum albumin); 1.61 ± 1.1 µM in data set [4] (Huh-7 cells, 3 days, absence of HSA, read-out: EC50 HCV 2a (subgenomic replicon)); 0.194 ± 0.026 µM in data set [7] (read-out: EC50 HCV-2a (reporter virus)). Moreover, the CC50 in [2] (HCV replicon-containing cell line) amounted to 7.2 ± 6 µM; in data set [5] (setting [16]), 3.5 ± 1.9 µM; in data set [6] it was 16 µM; in [8], 3.9 µM; in data set [9] (setting [16]), 24.3 ± 2.1 µM.

`Fc1ccccc1-c1nc2ccn(Cc3ccc(-c4ccc(C(F)(F)F)cc4C(F)(F)F)nn3)cc-2n1` [Compound 1, 5-({6-[2,4-bis(trifluoromethyl)phenyl]pyridazin-3-yl}methyl)-2-(2-fluorophenyl)-5H-imidazo[4,5-c]pyridine]: the “pH solubility profile, geometric mean (3 lots)” value in data set [10] came out at 0.7 micrograms/ml. Further, the “toxic effects at the highest concentration tested” value in data set [2] (50 μM, any of the cell lines Huh-7, SL3, MH4, HepG2, MT4) is recorded as “No toxic effects”. Further, the “cytotoxicity in Huh-7 cells” value in [2] (human, Huh-7 lucneo cells (HCV replicon-containing)) is given as > 50,000 nM. The “selectivity index (CC50/EC50)” value in [3] (CC50 in cell lines versus EC50 in HCV-1b and HCV-1a replicons) is reported as 13,000-80,000. The EC50 in [4] (Hepatitis C virus, 72 h, Huh-7 cells, 3 days, absence of HSA, read-out: EC50 HCV 2a (subgenomic replicon)) worked out at 21.9 ± 19 µM; in data set [4] (Hepatitis C virus, Huh-7, 72 h, read-out: EC50 2a subgenomic replicon model), 21.9 µM. For the same compound, the “anti-HCV replicon activity against genotype 2a” value in [4] (compared with genotypes 1a and 1b) was “substantially less active”. Further, the “cytotoxicity in MT4 cells” value in data set [5] (human) is recorded as > 50,000 nM. Also, the half-maximal cytotoxic concentration (CC50) in [6] and in data set [8] was over 50 µM each time. In addition, the “interaction between compound (1) and IFN-α” value in data set [11] was “additive interaction”. Also, in data set [12], the “time of maximal antiviral effect” value stood at 24 h. Moreover, the “times more potent than the compound of formula (4)” value in data set [13] is on record as “about 330 times”. Further, the “cytotoxicity in HepG2 cells” value in [9] (human) is listed as > 50,000 nM. Further, the “mean concentration 24 hours after dosing relative to protein binding adjusted in vitro HCV GT-1b Replicon EC50” value in data set [14] (240 mg fasted single dose) is about 7 fold. The “increase of systemic exposure when administered with a high fat meal” value in data set [14] (HCV GT-1 infected subjects, single dose with food versus fasted) is given as “approximately 2 fold”. The “tolerability of single doses” value in data set [15] (single doses 40-480 mg, HCV GT-1 infected subjects, no serious or treatment-limiting adverse events) is “well tolerated”. The “treatment emergent laboratory abnormalities” value in data set [15] (single doses, Part A) is recorded as “no Grade 3 or 4 treatment emergent laboratory abnormalities”. In [15] (single doses, Part A, all AEs mild except one moderate headache), the “most common adverse event” value is “headache”.

On to IFN-α, for which the “EC50 HCV 1b-lucneo (subgenomic replicon)” value in [3] (3 days, absence of HSA) is given as 2 IU/mL. Also, the “EC50 HCV-2a (reporter virus)” value in [7] came to 1.2 IU/mL.
